Test results as given in ChEMBL document CHEMBL4342488, “Structure-Activity Relationship Study of Covalent Pan-phosphatidylinositol 5-Phosphate 4-Kinase Inhibitors” (ACS Med Chem Lett, 2020).
Blank lines part the entries; values can stand above or below the molecule they belong to.

Tests used:
[1] = molecular target: T1, Phosphatidylinositol 5-phosphate 4-kinase type-2 beta (Homo sapiens, UniProt P78356); assay: Inhibition of PI5P4Kbeta (unknown origin) incubated for 15 mins in presence of ATP by ADP-Glo assay
T1 sequence (P78356 whole entry): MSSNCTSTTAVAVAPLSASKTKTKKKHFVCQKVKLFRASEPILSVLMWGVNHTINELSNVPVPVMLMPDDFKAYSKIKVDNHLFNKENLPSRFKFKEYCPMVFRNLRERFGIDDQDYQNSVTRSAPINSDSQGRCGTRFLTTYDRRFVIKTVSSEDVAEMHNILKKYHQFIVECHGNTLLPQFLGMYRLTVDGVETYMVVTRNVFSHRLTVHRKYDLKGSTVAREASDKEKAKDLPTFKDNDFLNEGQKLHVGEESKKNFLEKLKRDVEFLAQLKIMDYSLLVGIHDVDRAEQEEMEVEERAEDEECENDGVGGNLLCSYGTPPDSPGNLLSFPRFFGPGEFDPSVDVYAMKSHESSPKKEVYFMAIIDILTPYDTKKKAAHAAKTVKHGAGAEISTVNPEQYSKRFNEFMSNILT

[2] = molecular target: T2, Phosphatidylinositol 5-phosphate 4-kinase type-2 alpha (Homo sapiens, UniProt P48426); assay: Inhibition of PI5P4Kalpha (unknown origin) incubated for 15 mins in presence of ATP by ADP-Glo assay
T2 sequence (P48426 whole entry): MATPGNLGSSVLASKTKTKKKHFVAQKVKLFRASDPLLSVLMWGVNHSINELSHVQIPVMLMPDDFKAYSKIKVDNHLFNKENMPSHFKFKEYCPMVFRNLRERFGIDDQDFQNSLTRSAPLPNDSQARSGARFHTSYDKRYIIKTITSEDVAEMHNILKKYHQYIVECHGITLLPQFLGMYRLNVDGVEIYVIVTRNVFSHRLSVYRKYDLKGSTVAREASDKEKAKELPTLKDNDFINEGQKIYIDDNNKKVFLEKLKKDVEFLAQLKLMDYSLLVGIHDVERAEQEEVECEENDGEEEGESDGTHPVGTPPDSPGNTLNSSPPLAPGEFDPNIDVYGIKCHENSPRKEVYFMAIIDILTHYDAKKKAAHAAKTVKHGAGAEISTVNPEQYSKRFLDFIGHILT

[3] = molecular target: T3, Phosphatidylinositol 5-phosphate 4-kinase type-2 gamma (Homo sapiens, UniProt Q8TBX8); assay: Inhibition of PI5P4Kgamma (unknown origin)
T3 sequence (Q8TBX8 whole entry): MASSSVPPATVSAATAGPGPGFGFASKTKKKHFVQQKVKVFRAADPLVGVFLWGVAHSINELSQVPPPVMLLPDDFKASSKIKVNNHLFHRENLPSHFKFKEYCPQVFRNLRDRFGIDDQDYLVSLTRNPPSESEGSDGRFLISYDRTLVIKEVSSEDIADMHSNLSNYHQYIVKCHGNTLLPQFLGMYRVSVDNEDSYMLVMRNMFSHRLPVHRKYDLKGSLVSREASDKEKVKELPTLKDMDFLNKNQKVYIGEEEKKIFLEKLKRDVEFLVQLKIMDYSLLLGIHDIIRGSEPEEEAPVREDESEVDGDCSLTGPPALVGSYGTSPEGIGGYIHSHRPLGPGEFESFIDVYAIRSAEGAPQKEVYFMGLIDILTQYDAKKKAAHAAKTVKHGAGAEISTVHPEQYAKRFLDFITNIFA

- IC50 [1]: Not Active
- IC50 [2]: Not Active
SMILES: CN(C)C/C=C/C(=O)Nc1cccc(NC(=O)N2CCCC(Nc3cc(-c4cnc5[nH]ccc5c4)ncn3)C2)c1 (stereo unspecified)

- IC50 [3]: 1 µM
SMILES: FC(F)(F)c1ccccc1-c1nc(NCc2cccs2)c2ccccc2n1

- IC50 [3]: 15.8 µM
SMILES: Cn1nnnc1Sc1ncnc2scc(-c3cccc(S(C)(=O)=O)c3)c12

- IC50 ([1]; read-out: IC50): 9.9 µM
- IC50 ([2]; read-out: IC50): 1.34 µM
SMILES: Cc1ccc(-n2ccc3c(Nc4cccc(NC(=O)c5ccc(NC(=O)/C=C/CN(C)C)cc5)c4)ncnc32)cc1
